Assay results taken from US20070207993A1, “Molybdenum carbonyl complexes for treating rheumatoid arthritis and other inflammatory diseases” (Alfama - Investigacao e Desenvolvimetno De Productos …, priority 2005, published 2007).

Legend:
Wistar rats = test: Adjuvant arthritis in rats; assay type: in vivo, rat
Protocol: Adjuvant arthritis was induced in 11 week old, outbred Wistar rats (376-400 g) by a single intradermal injection into the subplanatar area of the right hind paw of 100 microliter of a 10 mg/ml suspension of mycobacterium butyricum in incomplete Freund's Adjuvant. The disease was induced in 3 groups of rats each consisting of 7 animals. […] Groups 2 and 3 received daily applications of methylene chloride (positive control) (500 mg/kg), or Compound I.1 (80 mg/kg), respectively. Both compounds were administered in olive oil by oral gavage. Treatment was initiated at day 10 after disease induction when signs of arthritis began to appear in the injected footpad as well as in the contralateral footpad. […] All animals were evaluated daily by determination of body weight, foot pad volume (performed by a water displacement method using a plethysmometer, Ugo Basile, Comerio, Italy), ankle circumference (using a flexible measuring tape) and arthritic index that is based on levels of erythema and oedema of the entire paws and digits, number of joints involved, spondilosis, lesions on tail, movement capacity and infections (0=normal, 1=swelling and/or redness of injected paw; 4=severe arthritis of the entire injected paw and digits; +2=2 joints are involved; +3=>2 joints are involved; +1=infection of paws; +1=tail lesions; +1=movement incapacity; +1=spondilosis). […]

[1] = Solubility in water and RPMI; assay type: physicochemical
[2] = CO release in the presence of reactive oxygen species (TBHP, H2O2, KO2); assay type: physicochemical; settings: 25° C., dark; for Equivalents of CO2 released, H2O2 / Equivalents of CO released, H2O2: H2O2 100:1, water; for Equivalents of CO2 released, KO2 / Equivalents of CO released, KO2: KO2 100:1, THF; for Equivalents of CO2 released, TBHP / Equivalents of CO released, TBHP: TBHP 100:1, water
Protocol: The studies were done using the same method and apparatus described in Example 7 with the following modifications: RPMI/FBS was replaced by double distilled water in the experiments with H2O2 and TBHP and by tetrahydrofuran (THF) for the experiments with KO2; the temperature was kept at 25° C. The concentration of Compound I.1 was approximately 1 mM and the ration of concentrations of H2O2, TBHP and KO2 relative to Compound I.1 was 100:1. The amount of CO2 generated was also measured in the same experiment to ascertain the concurrent oxidation of coordinated CO. TBHP was added from a 70% aqueous solution and H2O2 from a 30% aqueous solution.

Sprague Dawley rats = test: Toxicity in vivo, 20-day daily dosing; design: species or system rat; settings: 80 mg/kg daily for 20 days, in olive oil
Protocol: Compound I.1 was dissolved in olive oil and administered to Sprague Dawley rats at a daily dose of 80 mg/kg for 20 days. At the end of the treatment the rats were anesthetized, blood was collected and organ samples were fixed in formalin for histological analysis.

[3] = Spontaneous CO release from suspensions (gas chromatography, TCD); assay type: physicochemical; settings: dark; for Equivalents of CO released, H2O pH = 2.13: suspension in H2O pH 2.13, 37° C.; for Equivalents of CO released, H2O pH = 8.3: suspension in H2O pH 8.3, 37° C.; for Equivalents of CO released, RPMI: suspension in RPMI with 10% FBS; for Equivalents of CO released, RPMI / CO equivalents (average ± standard deviation) / Equivalents of CO released, Olive oil: 37° C.; for CO equivalents (average ± standard deviation): suspension in RPMI, eight independent assays; for Equivalents of CO released, Olive oil: suspension in olive oil
Protocol: CO detection was carried out by Gas Chromatography using a thermal conductivity detector (TCD) for the quantification of CO and CO2. The experiments were done under an initial atmosphere of reconstituted air, free of CO and CO2. […] […] Samples were withdrawn with gas-tight Hamilton syringes after homogenization of the head-space at given time intervals, preferably 2 hours, 4 hours and 6 hours. […] The volumes of CO released are usually in the range between 0.5-3 mL.
As a possible result of the use of suspensions, the number of CO equivalents released in RPMI varied slightly. As an example of the possible variations, the average of eight independent assays done with suspensions of Compound I.1 is given in Table 2.

Balb/c mice = test: Mortality in mice after injection of a lethal dose of LPS; assay type: in vivo; settings: LPS 10 mg/kg i.p., four i.p. injections of 20 mg/kg at -60, -30 min, +4 h, +9 h
Protocol: Seventeen eight week old Balb/c mice received one intraperitoneal injection of LPS at a dose of 10 mg/kg at time zero. One group of eight mice received four intraperitoneal injections of Compound I.1, each at a dose of 20 mg/kg, at 60 and 30 minutes before LPS and at 4 hours and 9 hours after LPS. A second group of 9 mice received four intraperitoneal injections of vehicle (carboxymethylcellulose 0.5%, Tween80 0.5%) at 60 and 30 minutes before LPS and at 4 hrs and 9 hrs after LPS. Survival of the mice was monitored for 168 hours.

## O=[C][Mo]([Br])([C]=O)([C]=O)([C]=O)[C]=O [Compound I.1]
Wistar rats; Wistar rats, 80 mg/kg daily oral gavage in olive oil, day 10 to 29, methylene chloride at 500 mg/kg
  paw volume, paw circumference and arthritis index (all measured parameters) versus positive control: superior to methylene chloride
Wistar rats; three rats of the control group, treated for 10 days
  effect in control rats with severe arthritis treated from day 20 on: signs of improvements
[1]
  solubility in water and RPMI: low solubility
[2]; 1 h
  Equivalents of CO2 released, H2O2: 0.41 equivalents
  Equivalents of CO released, H2O2: 1.08 equivalents
  Equivalents of CO2 released, KO2: 0.00 equivalents
  Equivalents of CO released, KO2: 1.94 equivalents
  Equivalents of CO2 released, TBHP: 0.51 equivalents
  Equivalents of CO released, TBHP: 2.51 equivalents
[2]; 3 h
  Equivalents of CO2 released, H2O2: 0.80 equivalents
  Equivalents of CO released, H2O2: 1.49 equivalents
  Equivalents of CO2 released, KO2: 0.00 equivalents
  Equivalents of CO released, KO2: 3.22 equivalents
  Equivalents of CO2 released, TBHP: 0.95 equivalents
  Equivalents of CO released, TBHP: 3.77 equivalents
[2]; 5 h
  Equivalents of CO2 released, H2O2: 0.90 equivalents
  Equivalents of CO released, H2O2: 1.46 equivalents
  Equivalents of CO2 released, KO2: 0.00 equivalents
  Equivalents of CO released, KO2: 2.54 equivalents
  Equivalents of CO2 released, TBHP: 1.07 equivalents
  Equivalents of CO released, TBHP: 3.94 equivalents
[2]; 24 h
  Equivalents of CO2 released, H2O2: 0.89 equivalents
  Equivalents of CO released, H2O2: 1.43 equivalents
  Equivalents of CO2 released, KO2: 0.00 equivalents
  Equivalents of CO released, KO2: 2.29 equivalents
  Equivalents of CO2 released, TBHP: 1.13 equivalents
  Equivalents of CO released, TBHP: 3.93 equivalents
Sprague Dawley rats
  histologic analysis of liver, kidney, heart, and spleen: did not reveal any gross alterations
  serum creatinine: in the normal range
  serum glutamic oxalacetic transaminase (sGOT): in the normal range
  serum glutamic pyruvic transaminase (sGPT): in the normal range
  serum urea: in the normal range
  signs of liver or kidney toxicity: No signs of liver or kidney toxicity
[3]; 2 hours
  Equivalents of CO released, H2O pH = 2.13: 0.98 equivalents of CO
  Equivalents of CO released, H2O pH = 8.3: 1.24 equivalents of CO
  Equivalents of CO released, RPMI: 1.82 equivalents of CO
  CO equivalents (average ± standard deviation): 1.82 ± 0.01 CO equivalents
  Equivalents of CO released, Olive oil: 0.08 equivalents of CO
[3]; 4 hours
  Equivalents of CO released, H2O pH = 2.13: 1.00 equivalents of CO
  Equivalents of CO released, H2O pH = 8.3: 1.03 equivalents of CO
  Equivalents of CO released, RPMI: 2.16 equivalents of CO
  CO equivalents (average ± standard deviation): 2.16 ± 0.13 CO equivalents
  Equivalents of CO released, Olive oil: 0.25 equivalents of CO
[3]; 6 hours
  Equivalents of CO released, H2O pH = 2.13: 0.93 equivalents of CO
  Equivalents of CO released, H2O pH = 8.3: 0.98 equivalents of CO
  Equivalents of CO released, RPMI: 2.27 equivalents of CO
  CO equivalents (average ± standard deviation): 2.27 ± 0.21 CO equivalents
  Equivalents of CO released, Olive oil: 0.53 equivalents of CO
[3]; 0.5 hours
  CO equivalents (average ± standard deviation): 0.64 ± 0.11 CO equivalents
[3]; 1 hour
  CO equivalents (average ± standard deviation): 1.56 ± 0.13 CO equivalents
[3]; 3 hours
  CO equivalents (average ± standard deviation): 2.42 ± 0.38 CO equivalents
[3]; 5 hours
  CO equivalents (average ± standard deviation): 2.43 ± 0.39 CO equivalents
[3]; 7 hours
  CO equivalents (average ± standard deviation): 2.51 ± 0.00 CO equivalents
[3]; 24 hours
  CO equivalents (average ± standard deviation): 2.40 ± 0.00 CO equivalents
Balb/c mice
  mice alive at 168 hours following LPS injection: three of the eight
